# According to patent publication US9255101B2 (BIOPROJECT, priority 2012, dated 2016):
# Counter-ions that a name gives are not always drawn.
# Columns and labels:
# human H4 receptor [1] = target: T1, human H4 receptor (Homo sapiens, UniProt Q9H3N8); assay: biochemical
# human H4 receptor [2] = target: T1, human H4 receptor; assay: biochemical; remark: listed apart in the source
# 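Wherever IC50 is given: membranes from SH-SY5Y cells with stable human H4 receptor expression, incubated with GDP 10 µM, radioactivity retained on filters counted by liquid scintillation.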
# 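Wherever Ki is given: radioligand displacement of a [3H]-labelled ligand from membranes of CHO cells stably expressing human H4 receptor, bound radioactivity counted on filters by liquid scintillation.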
# T1 sequence (Q9H3N8 whole entry): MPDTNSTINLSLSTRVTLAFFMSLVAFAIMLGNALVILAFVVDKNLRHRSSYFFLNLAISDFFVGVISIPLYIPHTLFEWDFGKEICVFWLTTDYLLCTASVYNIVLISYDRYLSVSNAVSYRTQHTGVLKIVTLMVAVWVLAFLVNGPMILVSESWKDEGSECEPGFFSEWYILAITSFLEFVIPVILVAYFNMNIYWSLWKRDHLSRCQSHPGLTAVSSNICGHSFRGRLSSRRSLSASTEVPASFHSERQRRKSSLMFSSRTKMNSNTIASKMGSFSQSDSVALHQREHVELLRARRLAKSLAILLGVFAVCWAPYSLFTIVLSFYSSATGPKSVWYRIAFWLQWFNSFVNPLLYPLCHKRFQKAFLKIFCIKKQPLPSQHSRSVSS
Compound,IC50 (human H4 receptor [1]) [µM],Ki (human H4 receptor [2]) [µM]
"CN1CCC(OC2c3ccccc3CCn3cc(-c4cccc(Cl)c4)nc32)CC1 (centres unmarked) [Example 77, 2-(3-chlorophenyl)-4-(1-methylpiperidin-4-yloxy)-9,10-dihydro-4H-3,10a-diaza-benzo[f]azulene oxalate]",< 0.3,< 0.03
"CN1CCC(OC2c3ccccc3CCn3cc(C=Cc4ccsc4)nc32)CC1 (centres unmarked) [Example 112, 4-(1-methylpiperidin-4-yloxy)-2-(2-thiophen-3-ylvinyl)-9,10-dihydro-4H-3,10a-diaza-benzo[f]azulene]",< 0.03,< 0.03
"CN1CCC(OC2c3ccccc3CCn3cc(-c4ccccc4Cl)nc32)CC1 (centres unmarked) [Example 26, 2-(2-chlorophenyl)-4-(1-methylpiperidin-4-yloxy)-9,10-dihydro-4H-3,10a-diaza-benzo[f]azulene oxalate]",< 0.3,< 0.03
"CN1CCC(OC2c3ccccc3CCn3cc(-c4cccc(F)c4)nc32)CC1 (centres unmarked) [Example 68, 2-(3-fluorophenyl)-4-(1-methylpiperidin-4-yloxy)-9,10-dihydro-4H-3,10a-diaza-benzo[f]azulene oxalate]",< 0.3,< 0.03
"CN1CCC(OC2c3ccccc3CCn3c2nc(CCCCCc2ccccc2)c3Cl)CC1 (centres unmarked) [Example 139, 1-chloro-4-(1-methylpiperidin-4-yloxy)-2-(5-phenylpentyl)-9,10-dihydro-4H-3,10a-diaza-benzo[f]azulene oxalate]",< 0.03,< 0.03
"CN1CCC(OC2c3ccccc3CCn3cc(-c4ccccc4F)nc32)CC1 (centres unmarked) [Example 27, 2-(2-fluorophenyl)-4-(1-methylpiperidin-4-yloxy)-9,10-dihydro-4H-3,10a-diaza-benzo[f]azulene]",< 0.3,< 0.3
"Cc1ccc(-c2cn3c(n2)C(OC2CCN(C)CC2)c2ccccc2CC3)cc1 (centres unmarked) [Example 5, 4-(1-methylpiperidin-4-yloxy)-2-p-tolyl-9,10-dihydro-4H-3,10a-diaza-benzo[f]azulene]",< 0.3,< 0.03
"CN1CCC(OC2c3ccccc3CCn3c2nc(-c2ccccc2)c3Cl)CC1 (centres unmarked) [Example 134, 1-chloro-4-(1-methylpiperidin-4-yloxy)-2-phenyl-9,10-dihydro-4H-3,10a-diaza-benzo[f]azulene]",< 0.03,< 0.03
"CN1CCC(OC2c3ccccc3CCn3cc(-c4ccc(C(C)(F)F)cc4)nc32)CC1 (centres unmarked) [Example 64, 2-[4-(1,1-difluoroethyl)-phenyl]-4-(1-methylpiperidin-4-yloxy)-9,10-dihydro-4H-3,10a-diaza-benzo[f]azulene oxalate]",< 0.03,< 0.3
"Cc1c(-c2ccccc2)nc2n1CCc1ccccc1C2OC1CCN(C)CC1 (centres unmarked) [Example 103, 1-Methyl-4-(1-methyl-piperidin-4-yloxy)-2-phenyl-9,10-dihydro-4H-3,10a-diaza-benzo[f]azulene]",< 0.03,< 0.03
"CN1CCC(OC2c3ccccc3CCn3cc(CCC(C)(C)C)nc32)CC1 (centres unmarked) [Example 94, 2-(3,3-dimethylbutyl)-4-(1-methylpiperidin-4-yloxy)-9,10-dihydro-4H-3,10a-diaza-benzo[f]azulene]",< 0.03,< 0.03
"CN1CCC(OC2c3ccccc3CCn3cc(C4=CCCCCC4)nc32)CC1 (centres unmarked) [Example 80, 2-cyclohept-1-enyl-4-(1-methylpiperidin-4-yloxy)-9,10-dihydro-4H-3,10a-diaza-benzo[f]azulene]",< 0.3,< 0.03
"CN1CCC(OC2c3ccccc3CCn3cc(-c4cccs4)nc32)CC1 (centres unmarked) [Example 47, 4-(1-methylpiperidin-4-yloxy)-2-thiophen-2-yl-9,10-dihydro-4H-3,10a-diaza-benzo[f]azulene oxalate]",< 0.3,< 0.3
"Cc1c(-c2ccc(C=CS(C)(=O)=O)cc2)nc2n1CCc1ccccc1C2OC1CCN(C)CC1 (centres unmarked) [Example 158, 2-[4-(2-methanesulfonyl-vinyl)-phenyl]-1-methyl-4-(1-methylpiperidin-4-yloxy)-9,10-dihydro-4H-3,10a-diaza-benzo[f]azulene]",< 0.03,< 0.03
"CN1CCC(OC2c3ccccc3CCn3cc(C=CCOc4ccccc4)nc32)CC1 (centres unmarked) [Example 121, 4-(1-methylpiperidin-4-yloxy)-2-(3-phenoxypropenyl)-9,10-dihydro-4H-3,10a-diaza-benzo[f]azulene]",< 0.03,< 0.03
"CN1CCC(OC2c3ccccc3CCn3cc(-c4ccccc4Cl)nc32)CC1 (single isomer, unassigned) [Example 54B, 2-(2-chlorophenyl)-4-(1-methylpiperidin-4-yloxy)-9,10-dihydro-4H-3,10a-diaza-benzo[f]azulene]",< 0.03,< 0.3
"CC(C)c1ccc(-c2cn3c(n2)C(OC2CCN(C)CC2)c2ccccc2CC3)cc1 (centres unmarked) [Example 32, 2-(4-isopropylphenyl)-4-(1-methyl-piperidin-4-yloxy)-9,10-dihydro-4H-3,10a-diaza-benzo[f]azulene oxalate]",< 0.3,< 0.3

Compound,IC50 (human H4 receptor [1]) [µM],Ki (human H4 receptor [2]) [µM]
"CN1CCC(OC2c3ccccc3CCn3cc(-c4ccsc4)nc32)CC1 (centres unmarked) [Example 12, 4-(1-methylpiperidin-4-yloxy)-2-thiophen-3-yl-9,10-dihydro-4H-3,10a-diaza-benzo[f]azulene]",< 0.3,< 0.3
"Cc1c(-c2ccc(N(C)C(=O)OC(C)(C)C)cc2)nc2n1CCc1ccccc1C2OC1CCN(C)CC1 (centres unmarked) [Example 125, methyl-{4-[1-methyl-4-(1-methylpiperidin-4-yloxy)-9,10-dihydro-4H-3,10a-diaza-benzo[f]azulen-2-yl]-phenyl}carbamic acid tert-butyl ester]",< 0.03,< 0.03
"Cc1c(CCC(C)(C)C)nc2n1CCc1ccccc1C2OC1CCN(C)CC1 (centres unmarked) [Example 229, 2-(3,3-dimethyl-butyl)-1-methyl-4-(1-methylpiperidin-4-yloxy)-9,10-dihydro-4H-3,10a-diaza-benzo[f]azulene]",–,< 0.03
"Cc1cc(C(F)(F)F)ccc1-c1cn2c(n1)C(OC1CCN(C)CC1)c1ccccc1CC2 (centres unmarked) [Example 55, 4-(1-methylpiperidin-4-yloxy)-2-(2-methyl-4-trifluoromethyl-phenyl)-9,10-dihydro-4H-3,10a-diaza-benzo[f]azulene]",–,< 0.3
"CN1CCC(OC2c3ccccc3CCn3cc(-c4ccc(CCSC(C)(C)C)cc4)nc32)CC1 (centres unmarked) [Example 189, 2-[4-(2-tert-butylsulfanylethyl)-phenyl]-4-(1-methylpiperidin-4-yloxy)-9,10-dihydro-4H-3,10a-diaza-benzo[f]azulene]",–,< 0.3
"Cc1c(-c2ccc(N)cc2)nc2n1CCc1ccccc1C2OC1CCN(C)CC1 (centres unmarked) [Example 173, 4-[1-methyl-4-(1-methylpiperidin-4-yloxy)-9,10-dihydro-4H-3,10a-diaza-benzo[f]azulen-2-yl]-phenylamine]",–,< 0.3
"Cc1c(-c2ccc(N3CCCCC3=O)cc2)nc2n1CCc1ccccc1C2OC1CCN(C)CC1 (centres unmarked) [Example 162, 1-{4-[1-methyl-4-(1-methylpiperidin-4-yloxy)-9,10-dihydro-4H-3,10a-diaza-benzo[f]azulen-2-yl]-phenyl}-piperidin-2-one oxalate]",–,< 0.3
"CN1CCC(OC2c3ccccc3CCn3cc(-c4ccc(OCC5CC5)cc4)nc32)CC1 (centres unmarked) [Example 193, 2-(4-cyclopropylmethoxyphenyl)-4-(1-methylpiperidin-4-yloxy)-9,10-dihydro-4H-3,10a-diaza-benzo[f]azulene]",–,< 0.3
"Cc1c(C#CCCO)nc2n1CCc1ccccc1C2OC1CCN(C)CC1 (centres unmarked) [Example 227, 4-[1-methyl-4-(1-methylpiperidin-4-yloxy)-9,10-dihydro-4H-3,10a-diaza-benzo[f]azulen-2-yl]-but-3-yn-1-ol]",–,< 0.3
"CN1CCC(OC2c3ccccc3CCn3cc(-c4ccccc4[N+](=O)[O-])nc32)CC1 (centres unmarked) [Example 190, 4-(1-methylpiperidin-4-yloxy)-2-(2-nitrophenyl)-9,10-dihydro-4H-3,10a-diaza-benzo[f]azulene]",–,< 0.3
"CN1CCC(OC2c3ccccc3CCn3cc(C4=CCOCC4)nc32)CC1 (centres unmarked) [Example 106, 2-(3,6-dihydro-2H-pyran-4-yl)-4-(1-methyldpiperidin-4-yloxy)-9,10-dihydro-4H-3,10a-diaza-benzo[f]azulene]",–,< 1
"Cc1c(-c2ccc(CCNC(=O)OC(C)(C)C)cc2)nc2n1CCc1ccccc1C2OC1CCN(C)CC1 (centres unmarked) [Example 223, (2-{4-[1-methyl-4-(1-methylpiperidin-4-yloxy)-9,10-dihydro-4H-3,10a-diaza-benzo[f]azulen-2-yl]-phenyl}-ethyl)-carbamic acid tert-butyl ester]",–,< 0.03
"Cc1c(-c2ccc(SCCNC(=N)N)cc2)nc2n1CCc1ccccc1C2OC1CCN(C)CC1 (centres unmarked) [Example 211, N-(2-{4-[1-methyl-4-(1-methylpiperidin-4-yloxy)-9,10-dihydro-4H-3,10a-diaza-benzo[f]azulen-2-yl]-phenylsulfanyl}-ethyl)-guanidine]",–,< 0.03
"Cc1c(-c2ccc(NC(=O)NC(C)(C)C)cc2)nc2n1CCc1ccccc1C2OC1CCN(C)CC1 (centres unmarked) [Example 209, 1-tertbutyl-3-{4-[1-methyl-4-(1-methylpiperidin-4-yloxy)-9,10-dihydro-4H-3,10a-diaza-benzo[f]azulen-2-yl]-phenyl}-urea]",–,< 0.03
"CN1CCC(OC2c3ccccc3CCn3cc(Cc4ccccc4)nc32)CC1 (centres unmarked) [Example 110, 2-benzyl-4-(1-methyl-piperidin-4-yloxy)-9,10-dihydro-4H-3,10a-diaza-benzo[f]azulene oxalate]",–,< 0.3
"CN1CCC(OC2c3ccccc3CCn3cc(-c4ccc(C(=O)NC5CCC(O)CC5)cc4)nc32)CC1 (centres unmarked) [Example 108, N-(4-hydroxycyclohexyl)-4-[4-(1-methylpiperidin-4-yloxy)-9,10-dihydro-4H-3,10a-diaza-benzo[f]azulen-2-yl]-benzamide]",–,< 1
"CNc1ccc(-c2cn3c(n2)C(OC2CCN(C)CC2)c2ccccc2CC3)cc1 (centres unmarked) [Example 100, methyl-{4-[4-(1-methylpiperidin-4-yloxy)-9,10-dihydro-4H-3,10a-diaza-benzo[f]azulen-2-yl]-phenyl}-amine oxalate]",–,< 1
